Values quoted from earlier work, collected in patent US6852718B2, “Phenylsulphonylipiperazinyl derivatives as 5-HT receptor ligands” (Merck Sharp & Dohme Ltd, priority 2000, dated 2005).

Target: human dopamine D2 receptor (Homo sapiens, UniProt P14416)
Sequence (P14416 whole entry): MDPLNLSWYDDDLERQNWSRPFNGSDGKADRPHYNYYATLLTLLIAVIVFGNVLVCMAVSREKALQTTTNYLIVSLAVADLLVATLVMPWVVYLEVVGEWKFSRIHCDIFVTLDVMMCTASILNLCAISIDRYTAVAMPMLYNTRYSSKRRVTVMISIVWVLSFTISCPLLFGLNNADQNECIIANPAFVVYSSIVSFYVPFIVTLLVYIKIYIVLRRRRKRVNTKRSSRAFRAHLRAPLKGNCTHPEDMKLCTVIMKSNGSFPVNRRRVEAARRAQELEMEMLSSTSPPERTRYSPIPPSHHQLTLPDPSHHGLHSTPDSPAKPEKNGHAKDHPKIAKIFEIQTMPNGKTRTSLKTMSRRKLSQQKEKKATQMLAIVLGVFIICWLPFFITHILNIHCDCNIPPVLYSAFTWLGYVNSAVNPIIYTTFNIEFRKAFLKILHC

In the case of COc1cccc(C(O)C2CCN(CCc3ccc(F)cc3)CC2)c1OC (stereo not drawn) [MDL-100,907, (+)-α-(2,3-dimethoxyphenyl)-1-[2-(4-fluorophenyl)-ethyl]-4-piperidinemethanol], the “activity at the human dopamine D2 receptor” value is listed as “essentially devoid of activity”.
